Reference: PubChem BioAssay AID1259407 (Chemical Carcinogenesis Research Information System (CCRIS), 2018)
Activity calls are given as the source filed them. How the calls were made is not given here.

System: CCRIS mutagenicity, Ames/micronucleus/aberration tests
Experiment: CCRIS mutagenicity studies
[1] = Test System: AMES SALMONELLA TYPHIMURIUM, Strain/Indicator: TA98, Metabolic Activation: NONE, Method: STANDARD PLATE
[2] = Test System: AMES SALMONELLA TYPHIMURIUM, Strain/Indicator: TA98, Metabolic Activation: RAT, LIVER, S-9, AROCLOR 1254, Method: STANDARD PLATE
[3] = Test System: AMES SALMONELLA TYPHIMURIUM, Strain/Indicator: TA100, Metabolic Activation: NONE, Method: STANDARD PLATE
[4] = Test System: AMES SALMONELLA TYPHIMURIUM, Strain/Indicator: TA100, Metabolic Activation: RAT, LIVER, S-9, AROCLOR 1254, Method: STANDARD PLATE
[5] = Test System: AMES SALMONELLA TYPHIMURIUM, Strain/Indicator: TA1535, Metabolic Activation: NONE, Method: STANDARD PLATE
[6] = Test System: AMES SALMONELLA TYPHIMURIUM, Strain/Indicator: TA1535, Metabolic Activation: RAT, LIVER, S-9, AROCLOR 1254, Method: STANDARD PLATE
[7] = Test System: AMES SALMONELLA TYPHIMURIUM, Strain/Indicator: TA1535, Metabolic Activation: NONE, Method: PREINCUBATION
[8] = Test System: AMES SALMONELLA TYPHIMURIUM, Strain/Indicator: TA1537, Metabolic Activation: NONE, Method: PREINCUBATION

Measured: mutagenic call

CCC(C)ON=O (configuration not stated)
active: Test System: AMES SALMONELLA TYPHIMURIUM, Strain/Indicator: TA1535, Metabolic Activation: HAMSTER, LIVER, S-9, AROCLOR 1254, Method: STANDARD PLATE active; positive | [6] active; positive | Test System: MOUSE LYMPHOMA, Strain/Indicator: L5178Y (TK+/TK-), Metabolic Activation: NONE, Method: SUSPENSION/PLATE active; positive. reevaluation of results: positive | Test System: MOUSE LYMPHOMA, Strain/Indicator: L5178Y (TK+/TK-), Metabolic Activation: RAT, LIVER, S-9, AROCLOR 1254, Method: SUSPENSION/PLATE active; positive. reevaluation of results: positive
inactive: Test System: AMES SALMONELLA TYPHIMURIUM, Strain/Indicator: TA98, Metabolic Activation: HAMSTER, LIVER, S-9, AROCLOR 1254, Method: STANDARD PLATE inactive; negative | [1] inactive; negative | [2] inactive; negative | Test System: AMES SALMONELLA TYPHIMURIUM, Strain/Indicator: TA100, Metabolic Activation: HAMSTER, LIVER, S-9, AROCLOR 1254, Method: STANDARD PLATE inactive; negative | [3] inactive; negative | [4] inactive; negative | [5] inactive; negative | Test System: AMES SALMONELLA TYPHIMURIUM, Strain/Indicator: TA1537, Metabolic Activation: HAMSTER, LIVER, S-9, AROCLOR 1254, Method: STANDARD PLATE inactive; negative | Test System: AMES SALMONELLA TYPHIMURIUM, Strain/Indicator: TA1537, Metabolic Activation: NONE, Method: STANDARD PLATE inactive; negative | Test System: AMES SALMONELLA TYPHIMURIUM, Strain/Indicator: TA1537, Metabolic Activation: RAT, LIVER, S-9, AROCLOR 1254, Method: STANDARD PLATE inactive; negative

COC(=O)[C@H]1CS[C@H]2C(Cl)=C(Cl)C(=O)N12
active: [3] active; positive

CSCCC(NC(=O)COc1cc(Cl)c(Cl)cc1Cl)C(=O)O (configuration not stated)
inactive: Test System: AMES SALMONELLA TYPHIMURIUM, Strain/Indicator: TA97, Metabolic Activation: NONE, Method: STANDARD PLATE inactive; negative | Test System: AMES SALMONELLA TYPHIMURIUM, Strain/Indicator: TA97, Metabolic Activation: RAT, LIVER, S-9, AROCLOR 1254, Method: STANDARD PLATE inactive; negative | [1] inactive; negative | [2] inactive; negative | [3] inactive; negative | [4] inactive; negative | [5] inactive; negative | [6] inactive; negative | Test System: AMES SALMONELLA TYPHIMURIUM, Strain/Indicator: TA1538, Metabolic Activation: NONE, Method: STANDARD PLATE inactive; negative | Test System: AMES SALMONELLA TYPHIMURIUM, Strain/Indicator: TA1538, Metabolic Activation: RAT, LIVER, S-9, AROCLOR 1254, Method: STANDARD PLATE inactive; negative

O=C(O)/C=C/c1cccc([N+](=O)[O-])c1
active: Test System: AMES SALMONELLA TYPHIMURIUM, Strain/Indicator: TA100, Metabolic Activation: NONE, Method: PREINCUBATION active; positive | [3] active; positive | Test System: AMES SALMONELLA TYPHIMURIUM, Strain/Indicator: TA100, Metabolic Activation: RAT, LIVER, S-9, AROCLOR 1254, Method: PREINCUBATION active; positive | [7] active; positive
inactive: Test System: AMES SALMONELLA TYPHIMURIUM, Strain/Indicator: TA98, Metabolic Activation: NONE, Method: PREINCUBATION inactive; negative | [1] inactive; negative | [2] inactive; negative | [4] inactive; negative | [8] inactive; negative | Test System: AMES SALMONELLA TYPHIMURIUM, Strain/Indicator: TA1538, Metabolic Activation: NONE, Method: PREINCUBATION inactive; negative

NN
inactive: Test System: AMES SALMONELLA TYPHIMURIUM, Strain/Indicator: TA98, Metabolic Activation: RAT LIVER S-9, PHENOBARBITAL AND BETA-NAPHTHOFLAVONE, Method: PREINCUBATION inactive; negative | Test System: AMES SALMONELLA TYPHIMURIUM, Strain/Indicator: TA100, Metabolic Activation: RAT LIVER S-9, PHENOBARBITAL AND BETA-NAPHTHOFLAVONE, Method: PREINCUBATION inactive; negative | Test System: AMES SALMONELLA TYPHIMURIUM, Strain/Indicator: TA102, Metabolic Activation: NONE, Method: STANDARD PLATE inactive; negative | [8] inactive; negative | Test System: AMES SALMONELLA TYPHIMURIUM, Strain/Indicator: TA1537, Metabolic Activation: RAT LIVER S-9, PHENOBARBITAL AND BETA-NAPHTHOFLAVONE, Method: PREINCUBATION inactive; negative | Test System: AMES SALMONELLA TYPHIMURIUM, Strain/Indicator: TA2638, Metabolic Activation: NONE, Method: STANDARD PLATE inactive; negative
active: End Point: IN VITRO CHROMOSOMAL ABERRATIONS, Test System: CHL CELLS, Metabolic Activation: NONE active; positive (structural changes) | End Point: IN VITRO CHROMOSOMAL ABERRATIONS, Test System: CHL CELLS, Metabolic Activation: RAT, LIVER, S-9, SODIUM PHENOBARBITAL AND 5,6-BENZOFLAVONE active; positive (structural changes) | Test System: AMES SALMONELLA TYPHIMURIUM, Strain/Indicator: G46, Metabolic Activation: HAMSTER, LIVER, HOMOGENATE, Method: PREINCUBATION active; positive | Test System: AMES SALMONELLA TYPHIMURIUM, Strain/Indicator: G46, Metabolic Activation: MOUSE, LIVER, HOMOGENATE, Method: PREINCUBATION active; positive | Test System: AMES SALMONELLA TYPHIMURIUM, Strain/Indicator: G46, Metabolic Activation: RAT, LIVER, HOMOGENATE, Method: PREINCUBATION active; positive | Test System: AMES SALMONELLA TYPHIMURIUM, Strain/Indicator: TA102, Metabolic Activation: NONE, Method: PREINCUBATION active; positive | Test System: AMES SALMONELLA TYPHIMURIUM, Strain/Indicator: TA1535, Metabolic Activation: HAMSTER, LIVER, HOMOGENATE, Method: PREINCUBATION active; positive | Test System: AMES SALMONELLA TYPHIMURIUM, Strain/Indicator: TA1535, Metabolic Activation: MOUSE, LIVER, HOMOGENATE, Method: PREINCUBATION active; positive | [7] active; positive | Test System: AMES SALMONELLA TYPHIMURIUM, Strain/Indicator: TA1535, Metabolic Activation: RAT LIVER S-9, PHENOBARBITAL AND BETA-NAPHTHOFLAVONE, Method: PREINCUBATION active; positive | Test System: AMES SALMONELLA TYPHIMURIUM, Strain/Indicator: TA1535, Metabolic Activation: RAT, LIVER, HOMOGENATE, Method: PREINCUBATION active; positive | Test System: E. COLI, Strain/Indicator: WP2 (PKM101), Metabolic Activation: NONE, Method: STANDARD PLATE active; positive | Test System: E. COLI, Strain/Indicator: WP2 UVRA (PKM101), Metabolic Activation: NONE, Method: STANDARD PLATE active; positive | Test System: E. COLI, Strain/Indicator: WP2 UVRA, Metabolic Activation: NONE, Method: PREINCUBATION active; positive | Test System: E. COLI, Strain/Indicator: WP2 UVRA, Metabolic Activation: RAT, LIVER, MICROSOMES, PHENOBARBITAL, Method: PREINCUBATION active; positive | Test System: E.COLI, Strain/Indicator: WP2UVRA, Metabolic Activation: NONE, Method: PREINCUBATION active; positive | Test System: E.COLI, Strain/Indicator: WP2UVRA, Metabolic Activation: RAT LIVER S-9, PHENOBARBITAL AND BETA-NAPHTHOFLAVONE, Method: PREINCUBATION active; positive

COc1c2ccoc2c(OC)c2oc(=O)ccc12
inactive: [1] inactive; negative | Test System: AMES SALMONELLA TYPHIMURIUM, Strain/Indicator: TA98, Metabolic Activation: RAT, LIVER, S-9, PHENOBARBITAL, Method: STANDARD PLATE inactive; negative

O=[N+]([O-])c1ccccc1SS/C(Cl)=C(\Cl)C(F)(F)F
active: Test System: AMES SALMONELLA TYPHIMURIUM, Strain/Indicator: TA100(DNP6), Metabolic Activation: NONE, Method: PREINCUBATION active; positive | Test System: AMES SALMONELLA TYPHIMURIUM, Strain/Indicator: TA100(NR), Metabolic Activation: NONE, Method: PREINCUBATION active; positive
